Source: patent US20130164336A1, “ANTIMICROBIAL AND ANTI-INFLAMMATORY ACTION PHARMACEUTICAL COMPOSITION FOR PARENTERAL ADMINISTRATION AND ITS PRODUCTION PROCESS” (priority 2010, published 2013)

Experiments:
Assay type in all cases: in vivo
[1] = test system: Escherichia coli (ATCC No 25922 F-50); test: Experimental sepsis model in mice, survival on the 7th day; conditions: E. coli 8×10^8 CFU/mouse
From the text: (§1) To determine therapeutic efficiency of fosfamicin and their pharmaceutical compositions including BHSiO2, we used experimental sepsis models and a statistical processing methos of the received data (χ^2) according to [29, 30].
(§2) Microorganisms: Staphylococcus aureus (ATCC No 25923 F-49), Escherichia coli (ATCC No 25922 F-50), Pseudomonas aeruginosa (ATCC N227853 F-51).
(§3) Animals: for the experiments we used hybrid mice (CBA×C57Black/6)CBF1 according to the “Regulations for test animals use” (USSR Ministry of health order supplement No 755 from 12.08. 1977).
(§4) The mice have been injected 0.8 ml of Pseudomonas aeruginosa daily culture suspension with a dosage 5×10^8 CFU/mouse or Staphylococcus aureus daily culture suspension with a dosage 10^10 CFU/mouse or Escherichia coli daily culture suspension with a dosage 8×10^8 CFU/mouse. The control group has been injected with 0.8 ml of normal saline solution (0.9% sodium chloride solution). In a day after being infected the test mice have been daily (during 3 days) intravenous injected with 100 mg/kg of antibiotics or different pharmaceutical compositions (antibiotic/BHSiO2) watered down with 0.25 ml of normal saline solution. The control group of mice has been injected using the same scheme with normal saline solution 0.25 mg.
(§5) Antimicrobial therapy efficiency has been estimated basing on the q-ty of the living mice on the 7th day of the experiment.
(§6) The obtained data stated in Table No 2 reflect the results of 3 independent experiments conducted for each test group.

[2] = test system: Pseudomonas aeruginosa (ATCC N227853 F-51); test: as above; conditions: P. aeruginosa 5×10^8 CFU/mouse
From the text: as §1, §2, §3, §4, §5, §6

[3] = test system: Staphylococcus aureus (ATCC No 25923 F-49); test: as above; conditions: S. aureus 10^10 CFU/mouse
From the text: as §1, §2, §3, §4, §5, §6

Pseudomonas aeruginosa = test: Anti-inflammatory action: peripheral blood leukocytes of mice surviving to day 7 after sepsis induction; conditions: mice infected with Pseudomonas aeruginosa surviving to day 7, median, low and high quartiles
Procedure: as §4, with “The control group has been injected with 0.8 ml of normal saline solution (0.9% sodium chloride solution).” left out, “solution.” for “solution. The control group of mice has been injected using the same scheme with normal saline solution 0.25 mg.”
(§7) It is known that in case of sepsis the quantity of peripheral blood leucocytes can determine the activity of the inflammatory process.
(§8) We have studied the leukocytes quantity of the mice that have survived until the day 7 after sepsis induction, according to the method described above.

Staphylococcus aureus = test: as above; conditions: mice infected with Staphylococcus aureus surviving to day 7, median, low and high quartiles
Procedure: as §4, with “The control group has been injected with 0.8 ml of normal saline solution (0.9% sodium chloride solution).” left out, “solution.” for “solution. The control group of mice has been injected using the same scheme with normal saline solution 0.25 mg.”
as §7, §8

[4] = 100 mg/kg intravenous daily for 3 days
[5] = 100 mg/kg intravenous daily for 3 days from a day after infection

## C[C@@H]1O[C@@H]1P(=O)(O)O [Fosfomycin, fosfomycin]
[1]; [4]
  Mice survival on the 7th day, survived/infected animals (absolute values): (14/30)
[1]; [5]
  Mice survival rate on the 7th day of infection: 46.6%
[2]; [4]
  Mice survival on the 7th day, survived/infected animals (absolute values): (10/31)
[2]; [5]
  Mice survival rate on the 7th day of infection: 32.2%
[3]; [4]
  Mice survival on the 7th day, survived/infected animals (absolute values): (12/30)
[3]; [5]
  Mice survival rate on the 7th day of infection: 40%
Pseudomonas aeruginosa
  Leukocytes quantity Me(LQ-HQ): 17.13 (16.0-18.63) × 10^9/l
Staphylococcus aureus
  Leukocytes quantity Me(LQ-HQ): 17.38 (15.5-21.5) × 10^9/l
